“Also recorded” adds a separate entry of the source.

The subject of one test is C. jeikeium. The experiment in a line: Kill or inhibit growth/proliferation; morphology, biofilm and growth disruption (Tables 5, 6). Note: test concentration or dose not given here. The format is cell-based, Corynebacterium jeikeium. On the set-up: key: A: Peptide aggregates; B: Less hyphal formation; Clumps; Diffuse clumps and small polyps; F: Diffuse growth; H: Thin; I: Growth inhibition; Microcolony formation; Rippled; Small polyps; Thick; W: Halo formation on top, microlonies on bottom.

The next test deals with M. luteus. The description is as above. The format is cell-based, Micrococcus luteus. Details: key: A: Peptide aggregates; B: Less hyphal formation; Clumps; Diffuse clumps and small polyps; F: Diffuse growth; H: Thin; I: Growth inhibition; Microcolony formation; Rippled; Small polyps; Thick; W: Halo formation on top, microlonies on bottom.
The test system of another test is MRSA. The description is as above. It is filed as cell-based, Methicillin-resistant Staphylococcus aureus. On the set-up: key: A: Peptide aggregates; B: Less hyphal formation; Clumps; Diffuse clumps and small polyps; F: Diffuse growth; H: Thin; I: Growth inhibition; Microcolony formation; Rippled; Small polyps; Thick; W: Halo formation on top, microlonies on bottom. Note: test concentration or dose not given here.

The subject of the next test is S. epidermidis. Described as above. Details: key: A: Peptide aggregates; B: Less hyphal formation; Clumps; Diffuse clumps and small polyps; F: Diffuse growth; H: Thin; I: Growth inhibition; Microcolony formation; Rippled; Small polyps; Thick; W: Halo formation on top, microlonies on bottom. The format is cell-based, Staphylococcus epidermidis.
Test [1] deals with microorganisms (e.g., bacteria, yeasts, fungi). The experiment in a line: Targeting peptide binding to target microorganisms (Table 3). Conditions: preferably 1x PBS.
For a further test, the system named is microorganisms. The test can be described thus: Peptides having multiple activities (targeting/binding, antimicrobial, growth or phenotype altering). From the text: In certain embodiments, peptides described herein can have multiple activities. Thus for example, a peptide can have both binding/targeting activity and antimicrobial activity. Such peptides can be used, e.g., in a chimeric construct, for any or all of these properties. Thus, for example, a peptide designated “B” in Table 8 can be used as a targeting peptide. If it is also designated G or M it can also be used for antimicrobial activity.

The mark [2] stands for this setting: microorganism the targeting peptide binds, binding in aqueous buffers varied by peptide solubility.
Throughout, for Organism, effect: test concentration or dose not given here.

Regarding “PF-021: peptide having multiple activities (chain 1 FSLNFSKQKYVTVN; chain 2 FSLNFSKQKYVTVN; Peptide with targeting and/or antimicrobial activity)”, the “Organism, effect” value in the test with C. jeikeium was “C. jeikeium (R)”; with M. luteus, “M. luteus (A)”; in the test on MRSA, “MRSA (R)”; in the test on S. epidermidis, “S. epidermidis (A)”. In test [1] (setting [2]), the “Target(s)” value is given as “S. epidermidis; also recorded: M. luteus; also recorded: P. mirabilis; also recorded: E. coli; also recorded: C. albicans; also recorded: E. faecalis; also recorded: C. jeikeium”. For the same substance, in the test with microorganisms, the Activities result was “G B”.
On to “PF-042: peptide having multiple activities (chain 1 LLLSYFRYTGALLQSLF; chain 2 LLLSYFRYTGALLQSLF; Peptide with targeting and/or antimicrobial activity)”, for which the “Organism, effect” value in the test on C. jeikeium was “C. jeikeium (S)”; with M. luteus it was “M. luteus (C)”; in the test with MRSA, “MRSA (R)”; in the test on S. epidermidis, “S. epidermidis (D)”. For the same substance, the Activities result in the test with microorganisms is on record as “G B”.
For “PF-025: peptide having multiple activities (chain 1 LLIIFRLWLELKWKNKK; chain 2 LLIIFRLWLELKWKNKK; Peptide with targeting and/or antimicrobial activity)”, the “Organism, effect” value in the test on C. jeikeium is listed as “C. jeikeium (A)”; in the test with M. luteus it was “M. luteus (A)”; in the test with MRSA, “MRSA (R)”; in the test with S. epidermidis it was “S. epidermidis (S)”. In addition, in test [1] (setting [2]), the “Target(s)” value was “S. epidermidis and M. luteus and P. mirabilis and E. coli and P. aeruginosa and MRSA and E. faecalis and C. jejuni”. In addition, in the test on microorganisms, the Activities result is recorded as “G B”.
Take “PF-030: peptide having multiple activities (chain 1 MTCHQAPTTTHQSNMA; chain 2 MTCHQAPTTTHQSNMA; Peptide with targeting and/or antimicrobial activity)”: the “Organism, effect” value with C. jeikeium is listed as “C. jeikeium (C)”; in the test on M. luteus it was “M. luteus (C)”; in the test with MRSA it was “MRSA (R)”; with S. epidermidis, “S. epidermidis (D)”. Besides, the Activities result with microorganisms is listed as “G B”.
As to “PF-036: peptide having multiple activities (chain 1 ILNRLSRIVSNEVTSLIYSLK; chain 2 ILNRLSRIVSNEVTSLIYSLK; Peptide with targeting and/or antimicrobial activity)”, the “Organism, effect” value is given as “C. jeikeium (A)” in the test with C. jeikeium, “M. luteus (A)” with M. luteus, “MRSA (R)” with MRSA and “S. epidermidis (S)” with S. epidermidis. Also, the “Target(s)” value in test [1] (setting [2]) is “S. epidermidis and M. luteus and P. mirabilis and E. coli and C. albicans and MRSA and S. pneumoniae and C. jejuni”. The Activities entry in the test on microorganisms is given as “G B”.
For “PF-012: peptide having multiple activities (chain 1 WRGPNTEAGGKSANNIVQVGGAPT; chain 2 WRGPNTEAGGKSANNIVQVGGAPT; Peptide with targeting and/or antimicrobial activity)”, the “Organism, effect” value with C. jeikeium is “C. jeikeium (A)”; in the test on M. luteus, “M. luteus (C)”; in the test with MRSA, “MRSA (R)”; with S. epidermidis, “S. epidermidis (S)”. Further, the Activities entry in the test with microorganisms was “G B”.
As for “PF-176: peptide having multiple activities (RLTSNQFLTRITPFVFAQH; Peptide with targeting and/or antimicrobial activity)”, the “Organism, effect” value was “C. jeikeium (D)” in the test on C. jeikeium, “M. luteus (C)” with M. luteus and “S. epidermidis (C)” in the test with S. epidermidis. The “Target(s)” value in test [1] (microorganism(s) the targeting peptide binds, binding in aqueous buffers depending on peptide solubility) was “S. epidermidis and M. luteus and P. mirabilis and E. coli and C. albicans and MRSA and E. faecalis and C. jeikeium”. Besides, the Activities entry in the test with microorganisms was “G B”.
Take “PF-052: peptide having multiple activities (chain 1 QELINEAVNLLVKSK; chain 2 QELINEAVNLLVKSK; Peptide with targeting and/or antimicrobial activity)”: the “Organism, effect” value in the test with C. jeikeium is “C. jeikeium (D)”; in the test on M. luteus it was “M. luteus (A)”; in the test on MRSA it was “MRSA (R)”; in the test on S. epidermidis, “S. epidermidis (S)”. Moreover, the “Target(s)” value in test [1] (setting [2]) is “S. epidermidis and M. luteus and E. coli and MRSA and E. faecalis and C. jeikeium and C. jejuni”. Moreover, the Activities result with microorganisms is reported as “G B”.
On to “PF-003: peptide having multiple activities (chain 1 MNNWIKVAQISVTVINEVIDIMKEKQNGGK; chain 2 MNNWIKVAQISVTVINEVIDIMKEKQNGGK; Peptide with targeting and/or antimicrobial activity)”, for which the “Organism, effect” value is given as “C. jeikeium (A)” in the test on C. jeikeium, “M. luteus (A)” in the test on M. luteus, “MRSA (R)” in the test with MRSA and “S. epidermidis (D)” in the test with S. epidermidis. The “Target(s)” value in test [1] (setting [2]) is “S. epidermidis and M. luteus and P. mirabilis and C. albicans and MRSA and C. jeikeium”. Also, in the test on microorganisms, the Activities result is reported as “G B”.
Consider “PF-076: peptide having multiple activities (LYQYELLSKEEYLKCTLIINQRRNEQK; Peptide with targeting and/or antimicrobial activity)”, for which the “Organism, effect” value with C. jeikeium is listed as “C. jeikeium (A)”; in the test with M. luteus it was “M. luteus (A)”; in the test with MRSA, “MRSA (R)”; in the test on S. epidermidis it was “S. epidermidis (S)”. Besides, the Activities result with microorganisms is listed as “G B”.
“PF-043: peptide having multiple activities (chain 1 MIKNETAYQMNELLVIRSAYAK; chain 2 MIKNETAYQMNELLVIRSAYAK; Peptide with targeting and/or antimicrobial activity)”: the “Organism, effect” value with C. jeikeium is “C. jeikeium (A)”; in the test with M. luteus it was “M. luteus (C)”; in the test on MRSA, “MRSA (R)”; in the test with S. epidermidis, “S. epidermidis (D)”. Moreover, the “Target(s)” value in test [1] (setting [2]) is “M. luteus; also recorded: C. jejuni”. Further, the Activities entry in the test on microorganisms is given as “G B”.
With LIQKGLNQTFIVVIRLNNFIKKS [PF-013], the “Organism, effect” value is on record as “C. jeikeium (D)” with C. jeikeium, “M. luteus (D)” in the test on M. luteus, “MRSA (R)” with MRSA and “S. epidermidis (C)” with S. epidermidis. For the same substance, in test [1] (setting [2]), the “Target(s)” value was “M. luteus and P. mirabilis and E. coli and P. aeruginosa and MRSA and S. pneumoniae and C. jeikeium and C. jejuni”. Also, the Activities result in the test on microorganisms is reported as “G B”.
Turning to “PF-010: peptide having multiple activities (chain 1 MDIDVNKLLQAFVYFKSFEKLRHNNS; chain 2 MDIDVNKLLQAFVYFKSFEKLRHNNS; Peptide with targeting and/or antimicrobial activity)”, the “Organism, effect” value in the test with C. jeikeium is given as “C. jeikeium (A)”; in the test on M. luteus, “M. luteus (A)”; in the test on MRSA, “MRSA (R)”; with S. epidermidis it was “S. epidermidis (S)”. Besides, the “Target(s)” value in test [1] (setting [2]) is reported as “S. epidermidis; also recorded: M. luteus; also recorded: E. coli; also recorded: C. albicans”. In the test on microorganisms, the Activities entry is listed as “G B”.
For “PF-001: peptide having multiple activities (chain 1 MNNWIIVAQLSVTVINEIIDIMKEKQKGGK; chain 2 MNNWIIVAQLSVTVINEIIDIMKEKQKGGK; Peptide with targeting and/or antimicrobial activity)”, the “Organism, effect” value in the test with C. jeikeium is given as “C. jeikeium (D)”; with M. luteus, “M. luteus (C)”; with MRSA, “MRSA (R)”; in the test with S. epidermidis, “S. epidermidis (C)”. Besides, in the test on microorganisms, the Activities result is on record as “G B”.
Taken in the same sequence, the figures for “PF-022: peptide having multiple activities (chain 1 MINELKNKNSGIMNNYVVTKESKL; chain 2 MINELKNKNSGIMNNYVVTKESKL; Peptide with targeting and/or antimicrobial activity)” were “C. jeikeium (A)”, “M. luteus (A)”, “MRSA (R)”, “S. epidermidis (D)” and “G B”.
Turning to “PF-004: peptide having multiple activities (chain 1 ARLSKAIIIAVIVVYHLDVRGLF; chain 2 ARLSKAIIIAVIVVYHLDVRGLF; Peptide with targeting and/or antimicrobial activity)”, the “Organism, effect” value is reported as “C. jeikeium (A)” in the test on C. jeikeium, “M. luteus (A)” in the test on M. luteus, “MRSA (R)” with MRSA and “S. epidermidis (A)” in the test with S. epidermidis. Besides, the Activities entry in the test with microorganisms is given as “G B”.

Source of the values: patent US20110039762A1, “TARGETED ANTIMICROBIAL MOIETIES” (C3 JIAN, INC., priority 2009, published 2011).
